Reference: article PMC12152147, “DDB1 engagement defines the selectivity of S656 analogs for cyclin K degradation over CDK inhibition” (EMBO Reports, 2025)
Where two headings read alike, the source gives them in different places.

How the values were obtained:
OCI-AML5 cells = test: Dose-response proliferative assay in OCI-AML5 (4 days, CellTiterGlo); type: cell-based, H. sapiens; conditions: read-out: IC50 in AML5
Description: Cell lines were purchased from the ATCC or donated from collaborators. OCI-AML5 cell line was cultured in αMEM, 10% heat-inactivated FBS supplemented with 10 ng/mL GM-CSF, OCI-AML1, U2OS and HEK293T cell lines in DMEM, 10% heat-inactivated FBS. Cells were maintained at 37 °C in 5% CO2 atmosphere.
Dose-response assays in primary AML specimens were performed as in chemical screen (see above) with the exception that compounds were tested in serial dilution (8 dilutions, 1:4, 10 μM down to 0.5 nM). Dose-response assays in OCI-AML5 cell line were conducted similarly with the following modifications: 300 cells per well were seeded in 50 μL of cell line media and cell viability was evaluated after 4 days in culture.

cyclin KeGFP = test: Cyclin KeGFP reporter system (eGFP/mCherry MFI by flow cytometry);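 further: 10 μM compound for 3 h relative to DMSO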; type: cell-based, H. sapiens; conditions: cyclin K-eGFP reporter
Description: We used the cyclin KeGFP reporter system previously described (Słabicki et al, [2020]). Lentiviral vector (Addgene plasmid #169930) was used to infect OCI-AML5 at a MOI of 5 and were selected with puromycin. Cells were seeded in methylcellulose and let grown as colonies for 10 days. Colonies were isolated, expanded and selected based on cyclin KeGFP fluorescence in presence and absence of cyclin K degrader molecules. Selected G7 clone was used for all reported experiments. Fluorescent signal of cyclin KeGFP and mCherry were quantified by flow cytometry (BD LSRII) in each condition and the geometric mean fluorescence intensity (MFI) were calculated using FlowJo (BD Biosciences). The ratio of eGFP to mCherry was normalized to DMSO-treated cells.

CDK1 = biological target: T1, CDK1 (Homo sapiens, UniProt P06493); test: CDK1 in vitro kinase activity, single concentration 1 μM; type: biochemical; conditions: single concentration 1 μM
T1 construct: purchased BPS Bioscience 79597
T1 sequence (P06493 whole entry): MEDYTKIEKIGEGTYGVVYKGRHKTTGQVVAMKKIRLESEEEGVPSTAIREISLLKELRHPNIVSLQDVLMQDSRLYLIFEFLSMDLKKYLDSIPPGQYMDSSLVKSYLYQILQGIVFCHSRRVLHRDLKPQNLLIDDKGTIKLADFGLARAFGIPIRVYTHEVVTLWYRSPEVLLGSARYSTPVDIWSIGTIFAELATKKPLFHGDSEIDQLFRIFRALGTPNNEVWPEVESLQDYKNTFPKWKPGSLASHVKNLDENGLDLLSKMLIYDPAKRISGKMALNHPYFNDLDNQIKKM
T1 sequence (P14635 whole entry partner): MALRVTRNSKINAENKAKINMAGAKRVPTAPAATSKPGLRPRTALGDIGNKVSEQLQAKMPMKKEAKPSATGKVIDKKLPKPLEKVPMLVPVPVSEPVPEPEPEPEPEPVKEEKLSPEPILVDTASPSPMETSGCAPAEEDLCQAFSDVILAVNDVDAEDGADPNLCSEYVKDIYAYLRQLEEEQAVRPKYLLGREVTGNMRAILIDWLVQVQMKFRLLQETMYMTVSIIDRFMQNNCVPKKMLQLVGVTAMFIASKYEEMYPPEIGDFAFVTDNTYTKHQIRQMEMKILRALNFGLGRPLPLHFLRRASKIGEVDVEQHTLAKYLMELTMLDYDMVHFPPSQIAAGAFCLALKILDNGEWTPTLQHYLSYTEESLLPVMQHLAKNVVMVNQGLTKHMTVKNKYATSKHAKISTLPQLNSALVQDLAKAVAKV
Description: (§1) Kinase activity was assessed using the kinase assay kits from BPS Bioscience for CDK1, CDK9 and CDK12 with Kinase Glo MAX in duplicates. Compounds were tested at a single concentration of 1 μM for CDK1 and CDK9 activity, and in a dilution ranging from 0.64 nM to 50 μM for CDK12 activity. Chemiluminescence was read using the Neo Synergy BioTek plate reader.

CDK9/CyclinT = biological target: T2, CDK9/CyclinT (Homo sapiens, UniProt P50750); test: CDK9/CyclinT in vitro kinase activity, single concentration 1 μM; type: biochemical; conditions: single concentration 1 μM
T2 construct: purchased BPS Bioscience 79628
T2 sequence (P50750 whole entry): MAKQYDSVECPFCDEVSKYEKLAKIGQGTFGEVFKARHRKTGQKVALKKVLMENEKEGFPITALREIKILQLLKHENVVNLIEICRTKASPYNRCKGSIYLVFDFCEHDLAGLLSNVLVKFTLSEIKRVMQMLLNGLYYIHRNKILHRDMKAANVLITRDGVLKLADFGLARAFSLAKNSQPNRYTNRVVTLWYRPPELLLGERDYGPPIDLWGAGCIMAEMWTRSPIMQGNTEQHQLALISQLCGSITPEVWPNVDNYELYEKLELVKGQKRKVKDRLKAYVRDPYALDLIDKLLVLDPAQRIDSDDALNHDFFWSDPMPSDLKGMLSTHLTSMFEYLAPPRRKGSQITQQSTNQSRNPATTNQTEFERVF
T2 sequence (O60563 whole entry partner): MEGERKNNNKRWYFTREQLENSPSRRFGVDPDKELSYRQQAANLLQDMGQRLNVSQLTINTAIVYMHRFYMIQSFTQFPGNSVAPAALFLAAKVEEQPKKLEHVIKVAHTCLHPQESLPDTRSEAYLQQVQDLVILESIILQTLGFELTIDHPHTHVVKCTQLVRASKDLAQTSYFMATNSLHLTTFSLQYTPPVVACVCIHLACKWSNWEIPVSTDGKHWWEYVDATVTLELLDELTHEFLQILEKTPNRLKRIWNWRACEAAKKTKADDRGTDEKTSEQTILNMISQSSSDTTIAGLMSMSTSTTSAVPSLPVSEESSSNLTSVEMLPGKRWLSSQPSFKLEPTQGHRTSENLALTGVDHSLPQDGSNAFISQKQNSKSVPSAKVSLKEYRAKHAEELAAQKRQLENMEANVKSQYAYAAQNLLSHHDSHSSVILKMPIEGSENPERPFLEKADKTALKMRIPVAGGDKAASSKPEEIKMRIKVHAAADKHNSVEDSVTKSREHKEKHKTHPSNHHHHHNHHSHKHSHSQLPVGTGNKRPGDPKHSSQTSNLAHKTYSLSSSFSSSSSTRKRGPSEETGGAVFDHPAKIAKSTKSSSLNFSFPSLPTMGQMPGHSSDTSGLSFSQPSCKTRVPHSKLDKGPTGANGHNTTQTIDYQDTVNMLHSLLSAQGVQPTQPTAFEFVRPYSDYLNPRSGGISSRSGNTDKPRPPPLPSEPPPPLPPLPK
Description: as §1

[1] = tested on: OCI-AML5 cells expressing shRNAs targeting CDK1, 2, 4, 7, 9, cyclin K; test: Dose response in OCI-AML5 expressing shRNAs targeting CDK1, 2, 4, 7, 9, cyclin K or control; type: cell-based, H. sapiens; conditions: for Class: class from shRNA IC50 profile and cyclin K-eGFP degradation; for class based on cellular selectivity: IC50 in shRNA OCI-AML5 cells and cyclin KeGFP degradation
[2] = tested on: OCI-AML5 cells expressing shRNA targeting CUL4A or CUL4B; test: Dose response in OCI-AML5 expressing shRNAs targeting CUL4A, CUL4B or control; type: cell-based, H. sapiens; conditions: ratio of IC50 in shCUL4A vs shCTRL OCI-AML5 cells
[3] = Homo sapiens, OCI-AML-5, OCI-AML5 cells
[4] = Homo sapiens, OCI-AML-5, OCI-AML5 expressing shRNA CCNK (cyclin K), read-out: IC50 shRNA CCNK
[5] = Homo sapiens, OCI-AML-5, OCI-AML5 expressing shRNA CDK1, read-out: IC50 shRNA CDK1
[6] = Homo sapiens, OCI-AML-5, OCI-AML5 expressing shRNA CDK2, read-out: IC50 shRNA CDK2
[7] = Homo sapiens, OCI-AML-5, OCI-AML5 expressing shRNA CDK4, read-out: IC50 shRNA CDK4
[8] = Homo sapiens, OCI-AML-5, OCI-AML5 expressing shRNA CDK7, read-out: IC50 shRNA CDK7
[9] = Homo sapiens, OCI-AML-5, OCI-AML5 expressing shRNA CDK9, read-out: IC50 shRNA CDK9
[10] = OCI-AML5 expressing shRNA CCNK (cyclin K), read-out: IC50 shRNA CCNK
[11] = OCI-AML5 expressing shRNA CDK1, read-out: IC50 shRNA CDK1
[12] = OCI-AML5 expressing shRNA CDK2, read-out: IC50 shRNA CDK2
[13] = OCI-AML5 expressing shRNA CDK4, read-out: IC50 shRNA CDK4
[14] = OCI-AML5 expressing shRNA CDK7, read-out: IC50 shRNA CDK7
[15] = OCI-AML5 expressing shRNA CDK9, read-out: IC50 shRNA CDK9

IC50 (OCI-AML5 cells; [3]) [nM] | inhibition at 1 µM (CDK1) [%] | inhibition at 1 µM (CDK9/CyclinT) [%] | IC50 [1, 4] [nM] | IC50 [1, 5] [nM] | IC50 [1, 6] [nM] | IC50 [1, 7] [nM] | IC50 [1, 8] [nM] | IC50 [1, 9] [nM] | Compound | % degradation cyclin K-eGFP (cyclin KeGFP) [%] | Class [1] | Ratio shCUL4A/shCTRL [2] | also measured
> 10000 | 83 | 82 | 7680 | 7310 | > 10000 | > 10000 | > 10000 | 7720 | C=C(C(=O)Nc1ncc(SCc2cccnc2)s1)c1ccc(CC(C)C)cc1 [UOM-005430] | 60 | mixed 1-2 | 0.36 | –
1 | 90 | 100 | 1.09 | 1.06 | 1.06 | 1.05 | 1.67 | 0.727 | CC(=O)N[C@@H]1CCC[C@H](C(=O)Nc2cc(-c3cnn4c3CC(C)(C)C4)c(Cl)cn2)C1 [AZD4573, reference compound] | – | 2 | – | –
– | – | – | – | – | – | – | – | – | CN(C)c1ccc(CC(=O)Nc2ncc(C(C)(C)C)s2)cc1 [UOM-005605] | 76 | 1 | 4.63 | IC50 (OCI-AML5 cells; OCI-AML5 cells): 1040 nM; % CDK1 inhibition (CDK1): 1%; % CDK9 inhibition (CDK9/CyclinT): 5%; class based on cellular selectivity [1]: Class I (effective cyclin K MGDs (decreased IC50 in cyclin K depleted cells only, and >65% degradation of cyclin KeGFP)); IC50 [1, 10]: 341 nM; IC50 [1, 11]: 1140 nM; IC50 [1, 12]: 1140 nM; IC50 [1, 13]: 996 nM; IC50 [1, 14]: 1080 nM; IC50 [1, 15]: 968 nM
422 | 25 | 67 | 148 | 493 | 457 | 408 | 525 | 367 | O=C(Cc1ccc(-c2ccccc2)cc1)Nc1ncc(SCc2cccnc2)s1 [UOM-005429] | 80 | 1 | 2.25 | –
2450 | 100 | 100 | 1850 | 908 | 2320 | 2280 | 2240 | 1180 | O=C(Cc1cccnc1)Nc1ncc(SCc2cccnc2)s1 [UOM-005249] | 10 | 2 | 0.98 | class based on cellular selectivity [1]: Class II
1330 | 81 | 65 | 785 | 700 | 1440 | 1840 | 1470 | 794 | O=C(Cc1ccc(N2CCOCC2)cc1)Nc1ncc(SCc2cccnc2)s1 [UOM-005606] | 45 | mixed 1-2 | 1.07 | –
– | – | – | – | – | – | – | – | – | O=C(Cc1ccccc1)Nc1ncc(SCc2cccnc2)s1 [UOM-005190] | 26 | 2 | 1.19 | IC50 (OCI-AML5 cells; OCI-AML5 cells): 2380 nM; % CDK1 inhibition (CDK1): 79%; % CDK9 inhibition (CDK9/CyclinT): 24%; IC50 [1, 10]: 2530 nM; IC50 [1, 11]: 815 nM; IC50 [1, 12]: 2690 nM; IC50 [1, 13]: 3280 nM; IC50 [1, 14]: 2900 nM; IC50 [1, 15]: 1660 nM
1730 | 43 | 84 | 1370 | 648 | 1720 | 2150 | 1400 | 743 | CC(=O)N1CCN(c2ccc(CC(=O)Nc3ncc(SCc4cccnc4)s3)cc2)CC1 [UOM-005614] | 0 | 2 | 0.67 | class based on cellular selectivity [1]: Class II
> 10000 | 34 | 20 | > 10000 | 3220 | > 10000 | > 10000 | > 10000 | 5920 | O=C(Cc1cnccn1)Nc1ncc(SCc2cccnc2)s1 [UOM-005482] | 0 | 2 | – | –
– | – | – | – | – | – | – | – | – | CC(C)(C)OC(=O)N1CCC(C(=O)Nc2ncc(SCc3cccnc3)s2)CC1 [UOM-005205] | 32 | – | 0.65 | IC50 (OCI-AML5 cells; OCI-AML5 cells): 2920 nM; % CDK9 inhibition (CDK9/CyclinT): 40%; IC50 [1, 10]: 5110 nM; IC50 [1, 11]: 2990 nM; IC50 [1, 12]: 2940 nM; IC50 [1, 13]: 5080 nM; IC50 [1, 14]: 3300 nM; IC50 [1, 15]: 4300 nM
4300 | – | 72 | 3020 | 2680 | 4390 | 3590 | 3830 | 3640 | O=C(Cc1ccc(C(F)(F)F)cc1)Nc1ncc(SCc2cccnc2)s1 [UOM-005203] | 51 | mixed 1-2 | 1.13 | –
– | – | – | – | – | – | – | – | – | O=C(Cc1ccc(NC(=O)C23CC4CC(CC(C4)C2)C3)cc1)Nc1ncc(SCc2cccnc2)s1 [UOM-005477] | 6 | 2 | 0.9 | IC50 (OCI-AML5 cells; OCI-AML5 cells): 1250 nM; % CDK9 inhibition (CDK9/CyclinT): 81%; IC50 [1, 10]: 1030 nM; IC50 [1, 11]: 741 nM; IC50 [1, 12]: 1090 nM; IC50 [1, 13]: 1200 nM; IC50 [1, 14]: 940 nM; IC50 [1, 15]: 594 nM
3780 | – | 73 | 4560 | 2360 | 2920 | 4090 | 4060 | 3000 | O=C(CC1CCCC1)Nc1ncc(SCc2cccnc2)s1 [UOM-005225] | 2 | 2 | 1.07 | –
1350 | – | 82 | 1060 | 548 | 1080 | 1050 | 1020 | 355 | O=C(Cc1ccc(NC(=O)c2ccccc2)cc1)Nc1ncc(SCc2cccnc2)s1 [UOM-005478] | 8 | 2 | 0.95 | –
3860 | – | 71 | 3700 | 4180 | 4640 | 3900 | 3020 | 2840 | O=C(Nc1ncc(SCc2cccnc2)s1)C1CCNCC1 [UOM-005283] | 4 | – | 0.91 | –
4040 | – | 51 | 5430 | 2270 | 4580 | 4400 | 4120 | 3260 | Cn1cc(CC(=O)Nc2ncc(SCc3cccnc3)s2)c2ccccc21 [UOM-005228] | 23 | 2 | 0.81 | –
1240 | – | 59 | 1000 | 753 | 927 | 1080 | 949 | 551 | O=C(Cc1ccc(NC(=O)c2ccccn2)cc1)Nc1ncc(SCc2cccnc2)s1 [UOM-005474] | 5 | 2 | 1.03 | –
